# Data as given in PubChem BioAssay (NCI).
#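 Results reflect a 48-hour exposure of cells in 96-well plates to compound at five concentrations. GI50: concentration for 50% inhibition of growth. TGI: total growth inhibition.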
# Tests used:
# Experiment in all cases: inhibition of tumour cell growth, NCI panel, 48 h
# [1] = test system: CAKI-1 renal
# [2] = test system: HCC-2998 colon
# [3] = test system: K-562 leukemia
# [4] = test system: PC-3 prostate
# [5] = test system: RXF 393 renal
# [6] = test system: SK-MEL-2 melanoma
# [7] = test system: SN12C renal
# [8] = test system: SNB-75 CNS
# [9] = test system: SR leukemia
# [10] = test system: UACC-257 melanoma
Compound,GI50 [1],TGI [1],GI50 [2],TGI [2],GI50 [3],TGI [3],GI50 [4],TGI [4],GI50 [5],TGI [5],GI50 [6],TGI [6],GI50 [7],TGI [7],GI50 [8],TGI [8],GI50 [9] [µM],TGI [9] [µM],GI50 [10],TGI [10]
Cc1nn2c(/C=C3\C(=O)Nc4ccc(Cl)cc43)c(C)nc2s1,26 µM,> 100 µM,26.2 µM,> 100 µM,5.43 µM,> 100 µM,21.3 µM,> 100 µM,> 100 µM,> 100 µM,22.2 µM,82.4 µM,> 100 µM,> 100 µM,16 µM,92.2 µM,4.69,64.4,> 100 µM,> 100 µM
COc1ccc(C(=O)OC2C(OC3C(O)COC(O[C@H]4C[C@H]5[C@@H]6CC=C7C[C@@H](O)CC[C@]7(C)[C@H]6CC[C@]5(C)[C@H]4[C@H](C)C(=O)CCC(C)C)C3OC(N)=O)OCC(O)C2O)cc1 (stereo not given in full),0.102 µM,0.975 µM,1.21 µM,6.16 µM,0.00924 µM,0.3 µM,0.0073 µM,0.473 µM,< 0.003 µM,0.0509 µM,0.00527 µM,0.242 µM,2.61 µM,7.04 µM,< 0.003 µM,3.87 µM,0.00567,0.493,0.03 µM,0.472 µM
CC/C=C1/C(=O)C=C[C@@H]1C/C=C\CCCC(=O)OC,2.7 µM,7.45 µM,2.13 µM,3.83 µM,0.767 µM,> 100 µM,3.02 µM,8.56 µM,2.03 µM,3.9 µM,2.24 µM,6.94 µM,3.08 µM,8.58 µM,12.9 µM,33.2 µM,0.563,–,2.51 µM,7.1 µM
COc1cc2c(cc1C)NC(=O)/C2=C/c1ccccn1,2.72 µM,9.59 µM,–,–,2.71 µM,> 100 µM,8.73 µM,> 100 µM,–,–,> 100 µM,> 100 µM,4.01 µM,18.4 µM,8.52 µM,> 100 µM,3.18,> 100,13.1 µM,> 100 µM
COc1ccc2cc(C(=O)/C=C/c3ccc(Cl)cc3Cl)ccc2c1,15.8 µM,70 µM,15.3 µM,29.1 µM,2.53 µM,14.5 µM,30.8 µM,> 100 µM,4.52 µM,14.5 µM,44.4 µM,95.7 µM,25.9 µM,67.9 µM,–,–,3.67,17.3,20 µM,55 µM
c1ccc2[nH]c(-c3ccc(-c4nccc5c4[nH]c4ccccc45)cc3)nc2c1,2.41 µM,7.11 µM,3.96 µM,15.9 µM,2.34 µM,5.47 µM,8.59 µM,25.1 µM,1.93 µM,3.53 µM,1.99 µM,4.34 µM,–,–,1.57 µM,4.07 µM,2.21,6.36,1.83 µM,3.5 µM
C=C(C)C(=O)O[C@H]1CC(=C)[C@@H]2C[C@H](O)[C@](O)(CCl)[C@@H]2[C@H]2OC(=O)C(=C)[C@@H]21,1.94 µM,3.45 µM,17.6 µM,32.4 µM,1.8 µM,4.59 µM,3.03 µM,10.4 µM,1.95 µM,3.98 µM,6.59 µM,22 µM,4.09 µM,17.1 µM,6.97 µM,20.7 µM,–,–,3.65 µM,13.5 µM
COc1ccc(-c2c[nH]c(C(=O)O)c2-c2cc(OC)c(OC)c(OC)c2)cc1,3.66 µM,> 100 µM,7.53 µM,> 100 µM,3.08 µM,> 100 µM,4.46 µM,> 100 µM,2.33 µM,6.77 µM,5.45 µM,> 100 µM,7.94 µM,> 100 µM,–,–,2.92,> 100,> 100 µM,> 100 µM
CCC(C)(CC(C)(C)C(=O)NCC(=O)NC(Cc1ccccc1)C(=O)NC(Cc1ccccc1)C(=O)NCC(=O)NC1CC(OC2CC(O)(C(=O)CO)Cc3c(O)c4c(c(O)c32)C(=O)c2c(OC)cccc2C4=O)OC(C)C1O)C(=O)NCC(C)O (stereo not given),90.9 µg/mL,> 150 µg/mL,116 µg/mL,> 150 µg/mL,86.3 µg/mL,> 150 µg/mL,> 150 µg/mL,> 150 µg/mL,> 150 µg/mL,> 150 µg/mL,127 µg/mL,> 150 µg/mL,81.2 µg/mL,> 150 µg/mL,16.1 µg/mL,> 150 µg/mL,–,–,> 150 µg/mL,> 150 µg/mL
O=C(O)CNC(=O)c1ccc(-c2ccccc2)cc1,–,> 100 µM,–,> 100 µM,–,> 100 µM,–,> 100 µM,–,> 100 µM,–,> 100 µM,–,> 100 µM,–,–,–,> 100,–,> 100 µM
CC(C)(C)OC(=O)N1CCN(CCn2cc(C(F)(F)F)c3c(Cl)ncnc32)CC1,–,–,2.05 µM,4.53 µM,3.22 µM,14.1 µM,1.79 µM,3.43 µM,3.43 µM,14.4 µM,1.93 µM,3.9 µM,4.05 µM,15.1 µM,16.2 µM,32.9 µM,2.94,> 100,3.31 µM,10.4 µM
COc1cc(/C=C/C(=O)c2cccc(Nc3nc(Nc4ccccc4)nc(Nc4ccccc4)n3)c2)cc(OC)c1OC,–,> 26.2 µM,5.5 µM,53.1 µM,1.37 µM,> 38.8 µM,2.19 µM,> 100 µM,1.6 µM,11.1 µM,7.78 µM,> 65.4 µM,20.7 µM,> 100 µM,16 µM,> 100 µM,–,–,25 µM,> 100 µM
COC(=O)C1(C)CCC(c2ccc(C)cc2)=C(CC(=O)O)C1 (stereo not given),–,–,–,–,–,> 100 µM,–,> 100 µM,–,> 100 µM,–,> 100 µM,–,> 100 µM,–,> 100 µM,–,> 100,–,> 100 µM
COc1cc([C@@H]2OC[C@@H]3C(c4cc(OC)c5c(c4)OCO5)OC[C@@H]32)cc(OC)c1OC (stereo not given in full),–,> 100 µM,–,> 100 µM,–,> 100 µM,–,> 100 µM,–,–,–,> 100 µM,–,–,–,> 100 µM,–,> 100,–,> 100 µM
